Test results published in patent publication US8541588B2, “Sulfonamide derivatives” (Pfizer Limited, priority 2009, dated 2013).
pIC50: −log10 of the molar value.

biological target: T1, Nav1.7 (or SCN9A) channel; HEK cells stably transfected with hSCN9A (Homo sapiens, UniProt Q15858); assay: Nav1.7 block, PatchXpress 7000 automated whole-cell voltage clamp, estimated IC50 (EIC50); format: cell-based; conditions: PatchXpress platform; hSCN9A HEK cells held at V1/2 of inactivation; estimated IC50
T1 construct: expressed in transfected cells
T1 sequence (Q15858 whole entry): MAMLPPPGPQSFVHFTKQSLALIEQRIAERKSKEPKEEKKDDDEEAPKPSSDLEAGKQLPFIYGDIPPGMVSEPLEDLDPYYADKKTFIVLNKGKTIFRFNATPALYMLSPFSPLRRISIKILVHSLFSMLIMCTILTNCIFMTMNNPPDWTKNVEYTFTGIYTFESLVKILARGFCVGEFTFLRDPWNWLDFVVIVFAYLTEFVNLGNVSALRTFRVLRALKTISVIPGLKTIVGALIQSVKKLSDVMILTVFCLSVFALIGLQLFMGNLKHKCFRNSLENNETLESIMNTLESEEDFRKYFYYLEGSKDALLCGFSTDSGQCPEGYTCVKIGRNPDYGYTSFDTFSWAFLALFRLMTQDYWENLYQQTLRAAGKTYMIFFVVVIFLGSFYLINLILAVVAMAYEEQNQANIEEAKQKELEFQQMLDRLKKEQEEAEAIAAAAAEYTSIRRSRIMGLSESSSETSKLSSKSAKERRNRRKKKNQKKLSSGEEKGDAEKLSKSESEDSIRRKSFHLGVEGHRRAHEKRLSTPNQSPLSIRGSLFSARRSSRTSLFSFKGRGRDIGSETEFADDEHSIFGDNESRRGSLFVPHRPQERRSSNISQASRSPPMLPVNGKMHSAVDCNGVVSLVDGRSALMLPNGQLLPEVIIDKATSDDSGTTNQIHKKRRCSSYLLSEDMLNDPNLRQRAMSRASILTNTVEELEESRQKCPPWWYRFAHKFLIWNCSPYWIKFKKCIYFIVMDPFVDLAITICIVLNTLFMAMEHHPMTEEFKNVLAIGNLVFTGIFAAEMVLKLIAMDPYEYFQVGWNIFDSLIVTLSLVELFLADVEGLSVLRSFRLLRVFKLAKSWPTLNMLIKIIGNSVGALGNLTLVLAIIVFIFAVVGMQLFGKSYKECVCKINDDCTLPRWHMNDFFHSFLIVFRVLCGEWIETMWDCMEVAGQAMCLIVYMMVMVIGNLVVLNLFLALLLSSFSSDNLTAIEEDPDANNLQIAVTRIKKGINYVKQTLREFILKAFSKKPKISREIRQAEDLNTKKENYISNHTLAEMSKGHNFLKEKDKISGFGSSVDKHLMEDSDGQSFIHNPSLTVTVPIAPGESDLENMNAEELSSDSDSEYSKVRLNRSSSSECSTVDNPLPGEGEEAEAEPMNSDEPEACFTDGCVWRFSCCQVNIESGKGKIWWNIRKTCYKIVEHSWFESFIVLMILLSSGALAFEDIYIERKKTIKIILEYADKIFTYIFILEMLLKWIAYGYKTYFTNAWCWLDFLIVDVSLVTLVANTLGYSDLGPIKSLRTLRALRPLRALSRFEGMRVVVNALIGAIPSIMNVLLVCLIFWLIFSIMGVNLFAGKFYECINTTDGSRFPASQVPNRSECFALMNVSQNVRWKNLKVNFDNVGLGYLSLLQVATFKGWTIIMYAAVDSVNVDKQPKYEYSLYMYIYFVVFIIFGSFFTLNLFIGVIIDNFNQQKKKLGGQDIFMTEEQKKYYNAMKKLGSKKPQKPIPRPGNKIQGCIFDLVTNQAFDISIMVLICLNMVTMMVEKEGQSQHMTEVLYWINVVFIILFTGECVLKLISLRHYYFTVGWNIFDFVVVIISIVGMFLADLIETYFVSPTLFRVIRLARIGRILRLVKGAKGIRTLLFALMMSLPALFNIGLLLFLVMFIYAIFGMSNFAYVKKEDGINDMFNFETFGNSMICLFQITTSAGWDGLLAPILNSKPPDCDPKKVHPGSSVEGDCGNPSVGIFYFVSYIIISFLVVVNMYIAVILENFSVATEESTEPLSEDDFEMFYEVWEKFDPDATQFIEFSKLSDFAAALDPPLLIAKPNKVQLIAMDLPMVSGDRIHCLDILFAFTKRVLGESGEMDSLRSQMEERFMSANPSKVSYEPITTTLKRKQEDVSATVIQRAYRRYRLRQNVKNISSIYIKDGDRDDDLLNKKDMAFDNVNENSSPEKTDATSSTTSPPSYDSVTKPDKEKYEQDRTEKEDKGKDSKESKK

SMILES	pIC50
Cc1nn(C)c(C)c1Cc1ccc(Oc2ccc(S(=O)(=O)Nc3nccs3)cc2F)cc1 [Example 118, 3-fluoro-N-1,3-thiazol-2-yl-4-{4-[(1,3,5-trimethyl-1H-pyrazol-4-yl)methyl]phenoxy}benzenesulfonamide]	4.73
O=S(=O)(Nc1ncns1)c1ccc(Oc2ccccc2-c2ccccc2)c(C(F)(F)F)c1 [Example 205, 4-(biphenyl-2-yloxy)-N-1,2,4-thiadiazol-5-yl-3-(trifluoromethyl)benzenesulfonamide]	6.48
N#Cc1cc(S(=O)(=O)Nc2cscn2)ccc1Oc1ccccc1-c1ccccc1 [Example 97, 4-(biphenyl-2-yloxy)-3-cyano-N-1,3-thiazol-4-ylbenzenesulfonamide]	5.63

same assay, conditions: estimated IC50; hSCN9A HEK cells, PatchXpress platform; Examples 283-814

pIC50	IC50 [µM]	SMILES
5.82	–	N#Cc1cc(S(=O)(=O)Nc2nccs2)ccc1Oc1ccc(-n2ccc(C(F)(F)F)n2)cc1C(F)(F)F [Example 492, 3-cyano-N-1,3-thiazol-2-yl-4-{2-(trifluoromethyl)-4-[3-(trifluoromethyl)-1H-pyrazol-1-yl]phenoxy}benzenesulfonamide]
–	>1	Cn1nccc1-c1ccc(Oc2ccc(S(=O)(=O)Nc3nccs3)cc2C#N)cn1 [Example 645, 3-cyano-4-{[6-(1-methyl-1H-pyrazol-5-yl)pyridin-3-yl]oxy}-N-1,3-thiazol-2-ylbenzenesulfonamide]
5.72	–	N#Cc1cc(S(=O)(=O)Nc2nccs2)ccc1Oc1ccc(-c2ncccc2Cl)cc1 [Example 456, 4-[4-(3-chloropyridin-2-yl)phenoxy]-3-cyano-N-1,3-thiazol-2-ylbenzenesulfonamide]
7.49	–	Cn1nccc1-c1ccc(I)cc1Oc1ccc(S(=O)(=O)Nc2ncc(F)s2)cc1C#N [Example 780, 3-cyano-N-(5-fluoro-1,3-thiazol-2-yl)-4-[5-iodo-2-(1-methyl-1H-pyrazol-5-yl)phenoxy]benzenesulfonamide]
5.68	–	N#Cc1cc(S(=O)(=O)Nc2nccs2)ccc1Oc1ccc(-n2ccc(C(F)(F)F)n2)nc1 [Example 643, 3-cyano-N-1,3-thiazol-2-yl-4-({6-[3-(trifluoromethyl)-1H-pyrazol-1-yl]pyridin-3-yl}oxy)benzenesulfonamide]
–	>1	CC(C)Oc1cc(-c2cc(F)ccc2Oc2ccc(S(=O)(=O)Nc3nccs3)cc2C#N)n(C)n1 [Example 310, 3-cyano-4-[4-fluoro-2-(3-isopropoxy-1-methyl-1H-pyrazol-5-yl)phenoxy]-N-1,3-thiazol-2-ylbenzenesulfonamide]
6.80	–	Cn1nc(C(F)(F)F)cc1-c1ccc(Oc2ccc(S(=O)(=O)Nc3ncc(F)s3)cc2C#N)cc1F [Example 719, 3-cyano-4-{3-fluoro-4-[1-methyl-3-(trifluoromethyl)-1H-pyrazol-5-yl]phenoxy}-N-(5-fluoro-1,3-thiazol-2-yl)benzenesulfonamide]
6.92	–	CCn1nc(C(F)(F)F)cc1-c1cccc(Oc2ccc(S(=O)(=O)Nc3nccs3)cc2C#N)c1 [Example 547, 3-cyano-4-{3-[1-ethyl-3-(trifluoromethyl)-1H-pyrazol-5-yl]phenoxy}-N-1,3-thiazol-2-ylbenzenesulfonamide]
5.89	–	N#Cc1cc(S(=O)(=O)Nc2nccs2)ccc1Oc1ccc(F)cc1-c1cnn(CC(F)(F)F)c1 [Example 641, 3-cyano-4-{4-fluoro-2-[1-(2,2,2-trifluoroethyl)-1H-pyrazol-4-yl]phenoxy}-N-1,3-thiazol-2-ylbenzenesulfonamide]

The next lines start with the compound.

SMILES	pIC50	IC50 [µM]
Cc1n[nH]cc1-c1cc(Cl)ccc1Oc1cc(F)c(S(=O)(=O)Nc2cscn2)cc1Cl [Example 662, 5-chloro-4-[4-chloro-2-(3-methyl-1H-pyrazol-4-yl)phenoxy]-2-fluoro-N-1,3-thiazol-4-ylbenzenesulfonamide]	7.48	–
CCn1nc(C(F)(F)F)cc1-c1ccc(Oc2ccc(S(=O)(=O)Nc3ncccc3Cl)cc2C#N)cc1 [Example 339, N-(3-chloropyridin-2-yl)-3-cyano-4-{4-[1-ethyl-3-(trifluoromethyl)-1H-pyrazol-5-yl]phenoxy}benzenesulfonamide]	4.82	–
N#Cc1cc(S(=O)(=O)Nc2ncc(F)s2)ccc1Oc1ccc(Cl)c(Cn2cccn2)c1 [Example 534, 4-[4-chloro-3-(1H-pyrazol-1-ylmethyl)phenoxy]-3-cyano-N-(5-fluoro-1,3-thiazol-2-yl)benzenesulfonamide]	6.30	–
Cc1ccc(NS(=O)(=O)c2ccc(Oc3ccccc3-c3ccccc3)c(C#N)c2)nc1 [Example 424, 4-(biphenyl-2-yloxy)-3-cyano-N-(5-methylpyridin-2-yl)benzenesulfonamide]	–	>3
O=S(=O)(Nc1cscn1)c1cc(F)c(Oc2ccc(Cl)cc2C2CNC2)cc1F [Example 604, 4-(2-azetidin-3-yl-4-chlorophenoxy)-2,5-difluoro-N-1,3-thiazol-4-ylbenzenesulfonamide]	6.09	–
O=S(=O)(Nc1cscn1)c1ccc(Oc2ccc(Cl)cc2-c2cn[nH]c2)cc1F [Example 680, 4-[4-chloro-2-(1H-pyrazol-4-yl)phenoxy]-2-fluoro-N-1,3-thiazol-4-ylbenzenesulfonamide]	6.00	–
CC1CN(c2ccc(Oc3ccc(S(=O)(=O)Nc4nccs4)cc3C#N)cc2)C(=O)N1 (centres unmarked) [Example 484, 3-cyano-4-[4-(4-methyl-2-oxoimidazolidin-1-yl)phenoxy]-N-1,3-thiazol-2-ylbenzenesulfonamide]	–	>1

same assay, conditions: estimated IC50; hSCN9A HEK cells, PatchXpress platform; Examples 815-1040

SMILES	pIC50
N#Cc1cc(S(=O)(=O)Nc2cscn2)ccc1Oc1ccc(C(F)(F)F)cc1-c1ccnnc1 [Example 953, 3-cyano-4-[2-pyridazin-4-yl-4-(trifluoromethyl)phenoxy]-N-1,3-thiazol-4-ylbenzenesulfonamide]	6.96
O=C(c1cccc(-c2cc(Cl)ccc2Oc2ccc(S(=O)(=O)Nc3ccncn3)cc2Cl)c1)N1CCC1 [Example 858, 4-{[3′-(azetidin-1-ylcarbonyl)-5-chlorobiphenyl-2-yl]oxy}-3-chloro-N-pyrimidin-4-ylbenzenesulfonamide]	7.77
N#Cc1cc(S(=O)(=O)Nc2ncns2)ccc1Oc1ccc(Cl)cc1-c1ccnc(NC2CCC2)c1 [Example 902, 4-{4-chloro-2-[2-(cyclobutylamino)pyridin-4-yl]phenoxy}-3-cyano-N-1,2,4-thiadiazol-5-ylbenzenesulfonamide]	8.64
Cc1nccnc1-c1cc(Cl)ccc1Oc1ccc(S(=O)(=O)Nc2ncns2)cc1C#N [Example 1010, 4-[4-chloro-2-(3-methylpyrazin-2-yl)phenoxy]-3-cyano-N-1,2,4-thiadiazol-5-ylbenzenesulfonamide]	6.09
O=S(=O)(Nc1ncns1)c1ccc(Oc2ccc(C(F)(F)F)cc2-c2ccnnc2)c(C(F)(F)F)c1 [Example 976, 4-[2-pyridazin-4-yl-4-(trifluoromethyl)phenoxy]-N-1,2,4-thiadiazol-5-yl-3-(trifluoromethyl)benzenesulfonamide]	8.60
CN(C)c1n[nH]cc1-c1cc(Cl)ccc1Oc1cc(F)c(S(=O)(=O)Nc2nncs2)cc1Cl [Example 870, 5-chloro-4-{4-chloro-2-[3-(dimethylamino)-1H-pyrazol-4-yl]phenoxy}-2-fluoro-N-1,3,4-thiadiazol-2-ylbenzenesulfonamide]	6.85
N#Cc1cc(S(=O)(=O)Nc2ncns2)ccc1Oc1ccc(Cl)cc1-c1cnco1 [Example 967, 4-[4-chloro-2-(1,3-oxazol-5-yl)phenoxy]-3-cyano-N-1,2,4-thiadiazol-5-ylbenzenesulfonamide]	7.57
